In data set [1] the target is B-Raf (Homo sapiens, UniProt P15056). As to the kind of experiment: B-Raf biochemical kinase inhibition (AlphaScreen, biotin-MEK1 substrate). The conditions noted are these: 100 μM ATP. Here is the method:
Compounds to be tested are diluted in dimethyl sulfoxide to a concentration of 0.1 mM. These are serially diluted 15 μL into 30 μL of dimethyl sulfoxide seven times in 96 well plates for a total of 8 dilution points, and for each dilution point 1 μL is added to a well of an assay plate. […] The reaction is started with addition of 10 μL of 200 μM ATP (i.e. final 100 μM ATP). […] The plates are incubated for 3 hours at room temperature and read on Envision reader (Perkin Elmer). […] The signal vs. compound concentration is used to determine the IC50.
(In general: Alpha assays give light when donor and acceptor beads are brought close together.)

Data set [2] addresses CYP2D6 (Homo sapiens, UniProt P10635). The experiment in a line: CYP2D6 inhibition (fluorescent substrate). In kind it is in vitro ADME. The conditions noted are these: CYP2D6, AMMC substrate; read-out: Cyp IC50 2D6. Here is the method: (§1) CYP (Cytochrome P450) enzymes are the major drug metabolizing enzymes present in the liver. The inhibition of CYP enzyme activity (IC50) for each of CYP1A2, CYP2C19, CYP2C9, CYP2D6, CYP3A4(BFC) and CYP3A4(BQ) is determined for compounds, where inhibition of metabolism of a known substrate leads to a decrease in the fluorescence of the metabolized product. The fluorescence of the product is monitored as a function of compound concentration.
(§2) Compounds are dissolved in dimethyl sulfoxide to a concentration of 100 mM. These are diluted 1 μL into 82 μL of acetonitrile. […] These are then serially diluted 1:1 (160 μL to 160 μL co-factor mix) for a total of 10 points. A 10 μL aliquot of this final mixture is dispensed into 384 well assay plates and incubated for 10 minutes at 37° C. […] Assay plates are incubated at 37° C. […] The signal versus compound concentration is used to determine the IC50. The enzymes and substrates for this assay are obtained from BD Biosciences.

In data set [3] the target is T1, CYP1A2 (Homo sapiens, UniProt P05177).
T1 sequence (P05177 1-516): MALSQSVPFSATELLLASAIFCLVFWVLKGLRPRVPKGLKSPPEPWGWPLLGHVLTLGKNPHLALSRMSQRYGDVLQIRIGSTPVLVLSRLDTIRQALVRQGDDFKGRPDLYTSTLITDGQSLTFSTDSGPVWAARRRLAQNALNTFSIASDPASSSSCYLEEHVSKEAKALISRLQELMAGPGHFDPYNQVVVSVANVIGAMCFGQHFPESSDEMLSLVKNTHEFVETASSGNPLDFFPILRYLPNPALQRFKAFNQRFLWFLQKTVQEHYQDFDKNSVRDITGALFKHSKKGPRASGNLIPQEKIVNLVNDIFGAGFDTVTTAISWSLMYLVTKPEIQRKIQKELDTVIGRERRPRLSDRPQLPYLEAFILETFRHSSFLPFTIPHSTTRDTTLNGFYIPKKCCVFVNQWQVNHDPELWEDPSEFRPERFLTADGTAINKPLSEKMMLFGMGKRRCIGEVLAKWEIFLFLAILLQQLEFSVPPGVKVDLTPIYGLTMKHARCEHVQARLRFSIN
The experiment in a line: CYP1A2 inhibition (fluorescent substrate). As to conditions: CYP1A2, CEC substrate; read-out: Cyp IC50 1A2. In kind it is in vitro ADME. The protocol:
as §1, §2

We go through 14 compounds from US8198273B2, “Compounds and methods for kinase modulation, and indications therefor” (Plexxikon Inc., priority 2009, dated 2012).

Chain of B-Raf (P15056 whole entry): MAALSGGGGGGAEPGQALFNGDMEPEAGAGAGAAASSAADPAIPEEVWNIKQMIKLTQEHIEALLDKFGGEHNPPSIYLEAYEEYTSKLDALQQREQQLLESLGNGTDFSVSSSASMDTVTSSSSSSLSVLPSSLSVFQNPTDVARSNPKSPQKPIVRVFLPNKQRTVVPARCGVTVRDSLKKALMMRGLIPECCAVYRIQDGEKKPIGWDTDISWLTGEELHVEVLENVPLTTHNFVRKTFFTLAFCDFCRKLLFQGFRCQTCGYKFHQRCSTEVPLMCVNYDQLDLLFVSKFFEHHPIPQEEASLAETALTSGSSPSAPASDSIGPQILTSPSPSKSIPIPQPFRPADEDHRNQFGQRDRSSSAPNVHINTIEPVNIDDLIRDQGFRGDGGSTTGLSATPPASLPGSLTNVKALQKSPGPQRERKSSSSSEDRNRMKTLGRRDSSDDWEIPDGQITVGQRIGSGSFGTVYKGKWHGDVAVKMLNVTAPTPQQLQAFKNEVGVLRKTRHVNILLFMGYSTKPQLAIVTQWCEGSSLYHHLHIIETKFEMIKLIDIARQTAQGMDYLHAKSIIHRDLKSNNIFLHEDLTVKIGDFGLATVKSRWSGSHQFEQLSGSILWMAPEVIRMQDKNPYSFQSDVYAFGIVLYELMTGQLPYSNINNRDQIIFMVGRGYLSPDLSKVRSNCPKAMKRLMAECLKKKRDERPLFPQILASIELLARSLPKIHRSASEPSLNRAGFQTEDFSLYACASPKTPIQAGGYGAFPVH
Chain of CYP2D6 (P10635 whole entry): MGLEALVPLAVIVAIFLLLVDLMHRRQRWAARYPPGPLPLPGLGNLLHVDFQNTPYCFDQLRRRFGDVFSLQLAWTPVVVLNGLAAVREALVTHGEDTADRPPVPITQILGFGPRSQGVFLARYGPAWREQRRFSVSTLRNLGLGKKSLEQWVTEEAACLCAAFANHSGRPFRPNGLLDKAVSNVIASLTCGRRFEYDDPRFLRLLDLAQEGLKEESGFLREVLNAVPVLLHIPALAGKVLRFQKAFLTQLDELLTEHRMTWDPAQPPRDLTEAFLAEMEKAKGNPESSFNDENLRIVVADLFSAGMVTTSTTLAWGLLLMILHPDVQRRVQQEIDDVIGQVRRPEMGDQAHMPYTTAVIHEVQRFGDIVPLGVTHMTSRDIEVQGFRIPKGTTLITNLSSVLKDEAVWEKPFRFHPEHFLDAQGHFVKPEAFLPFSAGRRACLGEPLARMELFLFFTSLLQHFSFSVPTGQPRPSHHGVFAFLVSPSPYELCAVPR

In the case of `N#Cc1ccnc2[nH]cc(C(=O)c3c(F)ccc(NS(=O)(=O)c4ccccc4F)c3F)c12` [P-2020, N-[3-(4-Cyano-1H-pyrrolo[2,3-b]pyridine-3-carbonyl)-2,4-difluoro-phenyl]-2-fluoro-benzenesulfonamide], the results for the IC50 in data set [1], in data set [2] and in data set [3] were under 0.01 µM, over 10 µM and over 10 µM, respectively.
On to `N#Cc1ccnc2[nH]cc(C(=O)c3c(F)ccc(NS(=O)(=O)c4c(F)cccc4F)c3F)c12` [P-2037, N-[3-(4-Cyano-1H-pyrrolo[2,3-b]pyridine-3-carbonyl)-2,4-difluoro-phenyl]-2,6-difluoro-benzenesulfonamide], for which the IC50 (commonly the concentration at which inhibition is half-maximal) in data set [1] is under 0.1 µM; in data set [2], over 10 µM; in data set [3], over 10 µM.
With `N#Cc1cnc2[nH]cc(C(=O)c3cccc(NS(=O)(=O)c4ccccc4F)c3F)c2c1` [P-2051, N-[3-(5-Cyano-1H-pyrrolo[2,3-b]pyridine-3-carbonyl)-2-fluoro-phenyl]-2-fluoro-benzenesulfonamide], the IC50 was under 0.1 µM in data set [1], over 10 µM in data set [2] and over 10 µM in data set [3].
For `N#Cc1cnc2[nH]cc(C(=O)c3cccc(NS(=O)(=O)c4c(F)cccc4F)c3F)c2c1` [P-2054, N-[3-(5-Cyano-1H-pyrrolo[2,3-b]pyridine-3-carbonyl)-2-fluoro-phenyl]-2,6-difluoro-benzenesulfonamide], the values for the IC50 in data set [1], in data set [2] and in data set [3] were under 0.1 µM, over 10 µM and over 10 µM, respectively.
As for `N#Cc1ccnc2[nH]cc(C(=O)c3c(F)ccc(NS(=O)(=O)c4cccnc4)c3F)c12` [P-2077, Pyridine-3-sulfonic acid [3-(4-cyano-1H-pyrrolo[2,3-b]pyridine-3-carbonyl)-2,4-difluoro-phenyl]-amide], the half-maximal inhibitory concentration (IC50) in data set [1] was under 0.01 µM; in data set [2], over 10 µM; in data set [3] it was over 10 µM.
In the case of `CCCS(=O)(=O)Nc1ccc(F)c(C(=O)c2c[nH]c3ncc(-c4ccc(C(=O)NC)nc4)cc23)c1F` [P-2180, 5-{3-[2,6-Difluoro-3-(propane-1-sulfonylamino)-benzoyl]-1H-pyrrolo[2,3-b]pyridin-5-yl}-pyridine-2-carboxylic acid methylamide], the values for the half-inhibitory concentration (IC50) in data set [1], in data set [2] and in data set [3] were under 0.01 µM, over 10 µM and over 10 µM, respectively.
Turning to `CCCS(=O)(=O)Nc1ccc(F)c(C(=O)c2c[nH]c3ncc(-c4ccc(C(=O)NC5CC5)nc4)cc23)c1F` [P-2181, 5-{3-[2,6-Difluoro-3-(propane-1-sulfonylamino)-benzoyl]-1H-pyrrolo[2,3-b]pyridin-5-yl}-pyridine-2-carboxylic acid cyclopropylamide], the 50% inhibitory concentration (IC50) in data set [1] was under 0.01 µM; in data set [2], over 10 µM; in data set [3], over 10 µM.
With `CCCS(=O)(=O)Nc1ccc(F)c(C(=O)c2c[nH]c3ncc(-c4ccc(OC)nc4OC)cc23)c1F` [P-2184, Propane-1-sulfonic acid {3-[5-(2,6-dimethoxy-pyridin-3-yl)-1H-pyrrolo[2,3-b]pyridine-3-carbonyl]-2,4-difluoro-phenyl}-amide], the values for the IC50 in data set [1], in data set [2] and in data set [3] were under 0.1 µM, over 10 µM and over 10 µM, respectively.
For `CCCS(=O)(=O)Nc1ccc(F)c(C(=O)c2c[nH]c3ncc(-c4cncc(S(C)(=O)=O)c4)cc23)c1F` [P-2188, Propane-1-sulfonic acid {2,4-difluoro-3-[5-(5-methanesulfonyl-pyridin-3-yl)-1H-pyrrolo[2,3-b]pyridine-3-carbonyl]-phenyl}-amide], the IC50 in data set [1] is under 0.01 µM; in data set [2] it was over 10 µM; in data set [3] it was over 10 µM.
As to `CCCS(=O)(=O)Nc1ccc(F)c(C(=O)c2c[nH]c3ncc(-c4ccnc(F)c4)cc23)c1F` [P-2192, Propane-1-sulfonic acid {2,4-difluoro-3-[5-(2-fluoro-pyridin-4-yl)-1H-pyrrolo[2,3-b]pyridine-3-carbonyl]-phenyl}-amide], the IC50 in data set [1] was under 0.01 µM; in data set [2], over 10 µM; in data set [3], over 10 µM.
Take `CCCS(=O)(=O)Nc1ccc(F)c(C(=O)c2c[nH]c3ncc(-c4ccc(S(N)(=O)=O)cc4)cc23)c1F` [P-2194, 4-{3-[2,6-Difluoro-3-(propane-1-sulfonylamino)-benzoyl]-1H-pyrrolo[2,3-b]pyridin-5-yl}-benzenesulfonamide]: the concentration for half-maximal inhibition (IC50) was under 0.01 µM in data set [1], over 10 µM in data set [2] and over 10 µM in data set [3].
For the compound `CCCS(=O)(=O)Nc1ccc(F)c(C(=O)c2c[nH]c3ncc(-c4cnc(N5CCOCC5)nc4)cc23)c1F` [P-2197, Propane-1-sulfonic acid {2,4-difluoro-3-[5-(2-morpholin-4-yl-pyrimidin-5-yl)-1H-pyrrolo[2,3-b]pyridine-3-carbonyl]-phenyl}-amide], the 50% inhibitory concentration (IC50) in data set [1] was under 0.01 µM; in data set [2] it was over 10 µM; in data set [3] it was over 10 µM.
As to `CCCS(=O)(=O)Nc1ccc(F)c(C(=O)c2c[nH]c3ncc(-c4cnc(OC)nc4OC)cc23)c1F` [P-2199, Propane-1-sulfonic acid {3-[5-(2,4-dimethoxy-pyrimidin-5-yl)-1H-pyrrolo[2,3-b]pyridine-3-carbonyl]-2,4-difluoro-phenyl}-amide], the IC50 in data set [1] was under 0.1 µM; in data set [2] it was over 10 µM; in data set [3], over 10 µM.
`CCCS(=O)(=O)Nc1ccc(F)c(C(=O)c2c[nH]c3ncc(-c4cccc(S(C)(=O)=O)c4)cc23)c1F` [P-2228, Propane-1-sulfonic acid {2,4-difluoro-3-[5-(3-methanesulfonyl-phenyl)-1H-pyrrolo[2,3-b]pyridine-3-carbonyl]-phenyl}-amide]: the IC50 in data set [1] is under 0.01 µM; in data set [2], over 10 µM; in data set [3], over 10 µM.
